Measured values reported in patent US20250341522A1, “Treatment Strategies for Pancreatic Cancer Using Recombinant Acid Sphingomyelinase” (University of Cincinnati, priority 2024, published 2025).

Legend:
[1] = system: isolated immune cells from tumors in wt mice; test: Anti-CD3-mediated IL-2 and INFγ formation in isolated immune cells from tumor wt mice; assay type: cell-based; settings: arginine added to isolated immune cells from tumors in wt mice
Text: Further, it was confirmed that sphingomyelin caused upregulation of Arg-1 and ADC and the concomitant reduction of arginine concentrations results in immune inhibition. Confirmation was accomplished by the finding that anti-CD3-mediated IL-2 and INFγ-formation, as well as cytotoxicity toward KPC cells, is lower in splenocytes isolated from wt mice injected with PDAC than in splenocytes from ASM-tr mice (FIG. 8E).

[2] = system: KPC-PDAC cells; test: Tumor development and survival of wildtype and ASM-transgenic mice after i.p. injection of KPC-PDAC cells, gemcitabine treatment (Example 4, FIG. 5); assay type: in vivo; settings: for response of tumors to treatment: i.p. KPC-PDAC cells
Method: FIG. 5 is a graph showing the survival of wildtype and ASM-transgenic mice after i.p. injection of 25,000 KPC cells. Treatment of ASM-transgenic (tr) mice with gemcitabine rescued 100% of the mice from tumor growth. n=12 each group.
An experiment was conducted to determine if acid sphingomyelinase overexpression prevents tumor growth. Based on the clinical data, the effects of ASM overexpression and tumor growth were evaluated.

[3] = system: lysosomal arginine transport; test: Efflux of arginine from isolated lysosomes of Ly6G-sorted splenocytes; assay type: biochemical, mice; settings: lysosomes of wt cells treated with sphingomyelin
Method: FIG. 7B is a graph showing the results of isolated lysosomes from Ly6G-sorted splenocytes obtained from mice with or without PDAC being loaded with [^14C]arginine and the efflux of [3H]arginine being determined. Aliquots of the lysosomes were treated with sphingomyelin.
(§1) The lysosomal arginine transporter SLC66A1 contains a VMLTLYFYY motif. A study was conducted to investigate whether SLC66A binds to sphingomyelin. […] Additionally, efflux of arginine was markedly higher in lysosomes of splenic myeloid cells isolated from wt tumors than in cells from control mice and absent in ASM-tr cells (FIG. 7B).
FIG. 7B is a graph showing isolated lysosomes from Ly6G-sorted splenocytes obtained from mice with or without PDAC were loaded with [^14C]arginine and the efflux of [3H]arginine was determined. Aliquots of the lysosomes were treated with sphingomyelin. Mean±SD; n=6-8; ***p<0.001 ANOVA.

[4] = target: T1, SLC66A1 (Mus musculus, UniProt Q8C4N4); test: Binding of [14C]sphingomyelin to immunoprecipitated SLC66A1
T1 construct: SLC66A1 was immunoprecipitated from 40×10^6 splenocytes, after lysis in RIPA-buffer+aprotinin/leupeptin; endogenous in cells; host or cells: splenocytes (immunoprecipitate on protein A/G agarose)
T1 sequence (Q8C4N4 1-293): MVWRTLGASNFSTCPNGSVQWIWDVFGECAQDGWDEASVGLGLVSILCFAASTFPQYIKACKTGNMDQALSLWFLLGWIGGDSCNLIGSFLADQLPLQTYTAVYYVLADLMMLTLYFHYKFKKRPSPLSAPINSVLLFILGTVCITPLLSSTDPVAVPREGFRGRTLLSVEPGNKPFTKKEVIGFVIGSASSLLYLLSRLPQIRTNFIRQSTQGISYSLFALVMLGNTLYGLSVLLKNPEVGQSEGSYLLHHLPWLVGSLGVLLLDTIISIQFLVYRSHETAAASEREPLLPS
Method: FIG. 7A is a graph showing the binding of [^14C]sphingomyelin (SM), [^14C]ceramide (Cer), and [^14C]sphingosine (SPH) in the absence or presence of the VMLTLYFYY peptide.
as §1
FIG. 7A is a graph showing SLC66A1 was immunoprecipitated from 40×10^6 splenocytes, after lysis in RIPA-buffer+aprotinin/leupeptin. Immunocomplexes were immobilized on protein A/G agarose, washed 3-times in RIPA buffer and twice in PBS+0.1% Triton X100, resuspended in the same buffer and binding of [^14C]sphingomyelin (SM), [^14C]ceramide (Cer), or [^14C]sphingosine (SPH) was measured in the absence or presence of the VMLTLYFYY peptide.

[5] = target: T2, ASM (Mus musculus, UniProt Q04519); test: Incubation of ex vivo splenocytes, Ly6G-sorted myeloid cells or J774 macrophages with polyamines: ASM activity and sphingomyelin; assay type: cell-based, mice; settings: agmatine 5 μM, 8 hr
T2 construct: endogenous in cells; host or cells: ex vivo mouse splenocytes, Ly6G-sorted myeloid cells, J774 macrophages
T2 sequence (Q04519 45-627): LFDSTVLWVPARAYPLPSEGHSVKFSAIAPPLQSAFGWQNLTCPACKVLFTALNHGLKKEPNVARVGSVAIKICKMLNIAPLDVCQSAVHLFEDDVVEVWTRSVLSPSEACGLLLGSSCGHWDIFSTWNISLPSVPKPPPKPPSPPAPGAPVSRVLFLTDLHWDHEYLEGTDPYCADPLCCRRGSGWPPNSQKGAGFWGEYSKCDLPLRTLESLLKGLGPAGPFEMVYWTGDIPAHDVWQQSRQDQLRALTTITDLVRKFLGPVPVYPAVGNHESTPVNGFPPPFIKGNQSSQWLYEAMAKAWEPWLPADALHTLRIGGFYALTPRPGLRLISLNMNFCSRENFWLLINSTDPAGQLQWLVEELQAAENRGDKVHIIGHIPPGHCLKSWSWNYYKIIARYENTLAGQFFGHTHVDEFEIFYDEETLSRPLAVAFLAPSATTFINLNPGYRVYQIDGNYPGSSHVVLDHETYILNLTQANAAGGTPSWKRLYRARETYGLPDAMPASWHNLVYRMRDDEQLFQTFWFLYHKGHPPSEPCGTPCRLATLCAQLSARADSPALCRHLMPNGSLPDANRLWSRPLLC
Method: FIG. 9A is a graph showing the concentration of polyamines in the blood plasma of wt or ASM-tr mice determined by ELISA. FIG. 9B is a graph showing the activity of ASM for splenocytes that were isolated from wt or ASM-tr mice and stimulated for 8 hr with 5 μM agmatine (Agm), 100 μM spermine (Sp), or 100 μM spermidine (Spd). FIG. 9C is a graph showing the concentrations of sphingomyelin for splenocytes that were isolated from wt or ASM-tr mice and stimulated for 8 hr with 5 μM agmatine (Agm), 100 μM spermine (Sp), or 100 μM spermidine (Spd). The activity of ASM and the concentrations of sphingomyelin were determined by an enzyme assay or ELISA. Mean±SD; n=6-8; **p<0.01, ***p<0.001 ANOVA.
An increase of Arg-1 and ADC expression may also increase polyamine concentrations. […]
FIG. 10 is a graph showing ASM activity (A) and levels of sphingomyelin (B), Arg-1 (C), and ADC (D) were determined in macrophages (J774 cell line) or in stable ASM-transfected J774 (with an approximately 3-fold overexpression of ASM) at baseline, after treatment with agmatine (Agm, 5 μM), spermine (Sp, 100 μM), or spermidine (Spd, 100 μM), supernatant (Sup) from KPC cells, and supernatant immunodepleted (id) of polyamines. ASM activity was measured by determining the consumption of [^14C]sphingomyelin, Sphingomyelin-, Arginase-1- and ADC-levels were quantified by ELISA. […]

[6] = system: Pan02 pancreas cancer cells; test: Orthotopic pancreatic cancer murine model (Pan02), tumor size 15 days after injection; assay type: in vivo; settings: wildtype mice, amitriptyline 10 mg/kg i.p. every other day, 15 days after tumor initiation, vs vehicle
Method: The wildtype mice were randomly divided into 2 groups treated with antidepressant (amitriptyline 10 mg/kg, i.p. injected every 2nd day) or vehicle, i.e. 0.9% NaCl. The size of the pancreas cancer was determined 15 days after tumor initiation.
FIG. 4 is a graph showing a growth of PDAC in murine models of orthotopic pancreatic ductal adenocarcinoma. Wildtype mice were injected orthotopically into the pancreas with […] Pan02 pancreas cancer cells and either left untreated or treated with amitriptyline at 10 mg/kg every other day via IP injection starting at day 4 after tumor injection. In addition, we injected acid sphingomyelinase-deficient littermates with Pan02 pancreas cancer cells orthotopically into the pancreas. Tumor size was determined 15 days after injection. Shown are the mean±SD of the tumor size from each n=4-5 mice per group; *p<0.05, ANOVA with Tukey post hoc test.
All animal experiments were approved by the University of Cincinnati Ethic Committee and the Institutional Animal Care and Use Committee. Eight-week-old, wild type male, C57BL/6J mice were purchased from Jackson Labs (000664, Jackson Labs, USA). Acid sphingomyelinase-deficient mice (Smpd1−/−) were bred and genotyped at the animal facility of the University of Cincinnati. […] The size of the pancreas cancer was determined in all groups 15 days after tumor initiation.

## N=C(N)NCCC[C@H](N)C(=O)O [arginine]
[1]
  CD3-mediated formation of IL-2 and INFγ: restored

## Nc1ccn([C@@H]2O[C@H](CO)[C@@H](O)C2(F)F)c(=O)n1 [gemcitabine]
[2]; ASM-tr mice, low dose of gemcitabine
  response of tumors to treatment: completely eradicate the tumors
[2]; ASM-transgenic mice, 25,000 KPC cells i.p., n=12
  mice rescued from tumor growth: 100%
[2]; wt mice
  response of tumors to treatment: resistant

## sphingomyelin
[3]
  efflux of arginine from lysosomes: strongly activated
[4]; immunoprecipitation from splenocytes, [14C]sphingomyelin
  binding to SLC66A1: direct and specific binding

## N=C(N)NCCCCN [agmatine]
[5]
  ASM activity: inhibited ASM activity
  cellular sphingomyelin concentrations: increased cellular sphingomyelin concentrations

## VMLTLYFYY [VMLTLYFYY peptide]
[4]; excess synthetic peptide
  binding of sphingomyelin to SLC66A1 in the presence of peptide: almost abrogated

## CN(C)CCC=C1c2ccccc2CCc2ccccc21 [amitriptyline]
[6]
  tumor growth (tumor size): increased tumor growth
